# Data from patent US11584755B2 (IDEAYA BIOSCIENCES, INC., priority 2017, dated 2023).
# Experiments:
# hFEN1 = hFEN1 (Homo sapiens (Human), UniProt P39748); assay: Enzymatic IC50 assay, FAM-labeled DNA oligomer substrate, fluorescence intensity (FEN1); format: biochemical; conditions: hFEN1 70 pM, substrate 100 nM, reaction time 20 minutes, 23° C.
# Protocol: (§1) FEN1, EXO1 or XPG enzyme was incubated with compound or vehicle (DMSO) and the FAM-labeled DNA oligomer substrate in a microtiter plate. The stop buffer contains EDTA to stop the enzymatic reaction. The plate is read for fluorescence intensity. The high control (DMSO) with high fluorescence intensity represents no inhibition of enzymatic reaction while the low control (10 μM) with low fluorescence intensity represents full inhibition of enzymatic reaction.
# (§2) • FEN1 • hFEN1: 70 pM • Substrate: 100 nM • Reaction time: 20 minutes • EXO1 • hEXO1: 6 nM, Isoforml • Substrate: 30 nM • Reaction time: 60 minutes • XPG • hXPG: 100 nM • Substrate: 100 nM • Reaction time: 120 minutes
# (§3) Annealing Buffer: 50 mM Tris-HCl, 50 mM NaCl, 1 mM DTT Assay buffer: 50 mM Tris-HCl pH 8.0, 10 mM MgCl2, 0.01% BSA, 1 mM DTT Stop buffer: 50 mM EDTA in assay buffer Temperature: 23° C. Total volume: 40 μl Controls: • 0% inhibition control: DMSO • 100% inhibition control: 10 μM (final) 5-chloro-3-hydroxy-1,3-dihydroquinazoline-2,4-dione Enzyme Reaction and Detection: • 1. Prepare 25 μM intermediate stock of the substrate by diluting SEQ ID NO:1, SEQ ID NO:2, and SEQ ID NO:3 in annealing buffer, in a PCR tube. • 2. Place the PCR tube on a heat block, heat at 95° C. for 3 minutes, then drop in 0.2° C. increments over 2 minutes, stopping at 25° C. • 3. Remove the tube and let the tube cool at room temperature. • 4. Transfer 10 μL of 3× final concentration test compounds or DMSO to the appropriate wells of a microtiter plate. • 5. Transfer 10 μL of 3× final concentration enzyme in assay buffer or assay buffer alone to the appropriate wells. • 6. Incubate the plate at room temperature for 15 minutes. • 7. Transfer 10 μL of 3× substrate in assay buffer to all the test wells. • 8. Incubate the plate at room temperature for prescribed reaction time. • 9. Centrifuge the plate at 1000 rpm for 1 minute. • 10. Transfer 10 μL of stop buffer to all the test wells. • 11. Centrifuge the plate at 1000 rpm for 1 minute. • 12. Read the plate on a plate reader.
# hEXO1, Isoform1 = hEXO1, Isoform1 (Homo sapiens (Human), UniProt Q9UQ84); assay: Enzymatic IC50 assay, FAM-labeled DNA oligomer substrate, fluorescence intensity (EXO1); format: biochemical; conditions: hEXO1 6 nM, substrate 30 nM, reaction time 60 minutes, 23° C.
# Protocol: as §1, §2, §3
# hEXO1, Isoform1, sequence (Q9UQ84 whole entry, canonical isoform): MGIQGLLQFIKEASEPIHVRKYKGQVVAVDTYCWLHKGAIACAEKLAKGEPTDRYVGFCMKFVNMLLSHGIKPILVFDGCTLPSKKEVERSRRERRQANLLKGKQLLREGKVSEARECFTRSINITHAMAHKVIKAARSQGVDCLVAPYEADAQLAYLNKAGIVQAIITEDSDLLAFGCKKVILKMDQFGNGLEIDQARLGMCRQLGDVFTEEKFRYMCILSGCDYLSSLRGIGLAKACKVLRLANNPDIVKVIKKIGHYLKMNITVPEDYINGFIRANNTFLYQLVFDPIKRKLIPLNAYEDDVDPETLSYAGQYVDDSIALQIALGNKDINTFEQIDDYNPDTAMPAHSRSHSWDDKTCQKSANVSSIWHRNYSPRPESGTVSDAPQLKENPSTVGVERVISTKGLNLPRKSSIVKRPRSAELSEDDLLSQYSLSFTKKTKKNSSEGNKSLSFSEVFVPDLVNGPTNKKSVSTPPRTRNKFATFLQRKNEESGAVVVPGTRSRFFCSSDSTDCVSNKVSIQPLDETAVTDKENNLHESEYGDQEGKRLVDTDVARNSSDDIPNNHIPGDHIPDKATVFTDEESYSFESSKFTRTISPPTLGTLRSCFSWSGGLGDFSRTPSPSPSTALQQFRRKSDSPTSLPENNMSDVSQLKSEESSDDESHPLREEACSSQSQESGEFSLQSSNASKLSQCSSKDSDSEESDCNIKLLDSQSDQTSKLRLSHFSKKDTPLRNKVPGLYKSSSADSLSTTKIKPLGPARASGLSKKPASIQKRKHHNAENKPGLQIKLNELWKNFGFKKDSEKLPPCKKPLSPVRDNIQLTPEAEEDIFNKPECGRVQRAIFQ
# hFEN1, sequence (P39748 whole entry): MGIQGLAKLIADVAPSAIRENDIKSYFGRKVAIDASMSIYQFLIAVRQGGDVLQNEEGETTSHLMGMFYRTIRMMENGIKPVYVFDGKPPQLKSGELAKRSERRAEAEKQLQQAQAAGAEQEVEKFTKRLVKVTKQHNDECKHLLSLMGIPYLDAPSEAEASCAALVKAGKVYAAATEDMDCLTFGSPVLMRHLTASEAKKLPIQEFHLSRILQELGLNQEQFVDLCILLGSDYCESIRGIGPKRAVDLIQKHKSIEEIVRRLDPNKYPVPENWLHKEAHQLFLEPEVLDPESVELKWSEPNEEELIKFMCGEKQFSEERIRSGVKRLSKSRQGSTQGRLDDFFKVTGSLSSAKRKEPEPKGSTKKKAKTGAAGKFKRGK
IC50 (hFEN1),"IC50 (hEXO1, Isoform1)",SMILES
0.25 to 0.75 µM,2.25 to 10 µM,"O=C(O)c1c(O)c(=O)n(Cc2cccc([N+](=O)[O-])c2)c2ccsc12 [Example 6, 6-hydroxy-4-[(3-nitrophenyl)methyl]-5-oxo-thieno[3,2-b]pyridine-7-carboxylic acid]"
2.25 to 10 µM,2.25 to 10 µM,"CC(=O)N1CCC(Cn2c(=O)c(O)c(C(=O)O)c3sccc32)CC1 [Example 9, 4-[(1-acetyl-4-piperidyl)methyl]-6-hydroxy-5-oxo-thieno[3,2-b]pyridine-7-carboxylic acid]"
2.25 to 10 µM,2.25 to 10 µM,"O=C(O)c1c(O)c(=O)n(Cc2cnc3c(-c4ccncc4)cccn23)c2ccsc12 [Example 31, 6-hydroxy-5-oxo-4-{[8-(pyridin-4-yl)imidazo[1,2-a]pyridin-3-yl]methyl}-4,5-dihydrothieno[3,2-b]pyridine-7-carboxylic acid]"
0.25 to 0.75 µM,0.75 to 2.25 µM,"COc1ccc(-c2ncc(Cn3c(=O)c(O)c(C(=O)O)c4sccc43)s2)cc1 [Example 32, 6-hydroxy-4-{[2-(4-methoxyphenyl)thiazol-5-yl]methyl}-5-oxo-4,5-dihydrothieno[3,2-b]pyridine-7-carboxylic acid]"
0.25 to 0.75 µM,2.25 to 10 µM,"O=C(O)c1c(O)c(=O)n(Cc2ccccc2[N+](=O)[O-])c2ccsc12 [Example 37, 6-hydroxy-4-(2-nitrobenzyl)-5-oxo-4,5-dihydrothieno[3,2-b]pyridine-7-carboxylic acid]"
0.25 to 0.75 µM,2.25 to 10 µM,"CCOC(=O)c1c(O)c(=O)n(Cc2ccc(N)cc2)c2ccsc12 [Example 41, ethyl 4-(4-aminobenzyl)-6-hydroxy-5-oxo-4,5-dihydrothieno[3,2-b]pyridine-7-carboxylate]"
2.25 to 10 µM,2.25 to 10 µM,"O=C(O)c1c(O)c(=O)n(CC2CCCC2)c2ccsc12 [Example 45, 4-(cyclopentylmethyl)-6-hydroxy-5-oxo-4,5-dihydrothieno[3,2-b]pyridine-7-carboxylic acid]"
2.25 to 10 µM,2.25 to 10 µM,"N#Cc1ccc(Cn2c(=O)c(O)c(C(=O)O)c3sccc32)cc1 [Example 48, 4-(4-cyanobenzyl)-6-hydroxy-5-oxo-4,5-dihydrothieno[3,2-b]pyridine-7-carboxylic acid]"
2.25 to 10 µM,2.25 to 10 µM,"CC(=O)N1CCCC(Cn2c(=O)c(O)c(C(=O)O)c3sccc32)C1 (stereo not drawn) [Example 49, 4-((1-acetylpiperidin-3-yl)methyl)-6-hydroxy-5-oxo-4,5-dihydrothieno[3,2-b]pyridine-7-carboxylic acid]"
2.25 to 10 µM,2.25 to 10 µM,"O=C(O)c1c(O)c(=O)n(CC2CCCNC2)c2ccsc12 (stereo not drawn) [Example 62, 6-hydroxy-5-oxo-4-(piperidin-3-ylmethyl)-4,5-dihydrothieno[3,2-b]pyridine-7-carboxylic acid]"
2.25 to 10 µM,2.25 to 10 µM,"CNC(=O)c1cccc(Cn2c(=O)c(O)c(C(=O)O)c3sccc32)c1 [Example 66, 6-hydroxy-4-[3-(methylcarbamoyl)benzyl]-5-oxo-4,5-dihydrothieno[3,2-b]pyridine-7-carboxylic acid]"
< 0.2 µM,0.75 to 2.25 µM,"COc1ccc(Cn2c(=O)c(O)c(C(=O)O)c3sccc32)cc1Cl [Example 70, 4-(3-chloro-4-methoxybenzyl)-6-hydroxy-5-oxo-4,5-dihydrothieno[3,2-b]pyridine-7-carboxylic acid]"
2.25 to 10 µM,2.25 to 10 µM,"O=C(O)c1c(O)c(=O)n(Cc2cccc3nonc23)c2ccsc12 [Example 72, 4-(benzo[c][1,2,5]oxadiazol-4-ylmethyl)-6-hydroxy-5-oxo-4,5-dihydrothieno[3,2-b]pyridine-7-carboxylic acid]"
2.25 to 10 µM,> 10 µM,"Cc1nc(Cn2c(=O)c(O)c(C(=O)O)c3sccc32)cs1 [Example 92, 6-hydroxy-4-[(2-methylthiazol-4-yl)methyl]-5-oxo-4,5-dihydrothieno[3,2-b]pyridine-7-carboxylic acid]"
> 10 µM,> 10 µM,"Cc1nc(Cn2c(=O)c(O)c(C(=O)O)c3sccc32)co1 [Example 96, 6-hydroxy-4-((2-methyloxazol-4-yl)methyl)-5-oxo-4,5-dihydrothieno[3,2-b]pyridine-7-carboxylic acid]"
< 0.2 µM,2.25 to 10 µM,"Nc1ccc(Cn2c(=O)c(O)c(C(=O)O)c3sccc32)cn1 [Example 97, 4-[(6-aminopyridin-3-yl)methyl]-6-hydroxy-5-oxo-4,5-dihydrothieno[3,2-b]pyridine-7-carboxylic acid]"
< 0.2 µM,,"Cc1nn(C)cc1Cn1cc(Cn2c(=O)c(O)c(C(=O)O)c3sccc32)cn1 [Example 134, 4-({1-[(1,3-dimethyl-1H-pyrazol-4-yl)methyl]-1H-pyrazol-4-yl}methyl)-6-hydroxy-5-oxo-4,5-dihydrothieno[3,2-b]pyridine-7-carboxylic acid]"
< 0.2 µM,,"O=C(O)c1c(O)c(=O)n(Cc2cnn(Cc3cncnc3)c2)c2ccsc12 [Example 135, 6-hydroxy-5-oxo-4-{[1-(pyrimidin-5-ylmethyl)-1H-pyrazol-4-yl]methyl}-4,5-dihydrothieno[3,2-b]pyridine-7-carboxylic acid]"
< 0.2 µM,,"O=C(O)c1c(O)c(=O)n(Cc2cnn(CC(F)(F)F)c2)c2ccsc12 [Example 137, 6-hydroxy-5-oxo-4-{[1-(2,2,2-trifluoroethyl)-1H-pyrazol-4-yl]methyl}-4,5-dihydrothieno[3,2-b]pyridine-7-carboxylic acid]"
< 0.2 µM,,"O=C(O)c1c(O)c(=O)n(Cc2cnn(Cc3cn4cccnc4n3)c2)c2ccsc12 [Example 139, 6-hydroxy-4-{[1-(imidazo[1,2-a]pyrimidin-2-ylmethyl)-1H-pyrazol-4-yl]methyl}-5-oxo-4,5-dihydrothieno[3,2-b]pyridine-7-carboxylic acid]"
0.25 to 0.75 µM,,O=C(O)c1c(O)c(=O)n(Cc2cnn(CC3CCS(=O)(=O)CC3)c2)c2ccsc12 [Example 145]
0.25 to 0.75 µM,,"O=C(O)c1c(O)c(=O)n(Cc2ccc(-c3ccccc3)nc2)c2ccsc12 [Example 147, 6-hydroxy-5-oxo-4-[(6-phenylpyridin-3-yl)methyl]-4,5-dihydrothieno[3,2-b]pyridine-7-carboxylic acid]"
< 0.2 µM,,"COc1cccc(Cn2cc(Cn3c(=O)c(O)c(C(=O)O)c4sccc43)nn2)c1 [Example 150, 6-hydroxy-4-{[1-(3-methoxybenzyl)-1H-1,2,3-triazol-4-yl]methyl}-5-oxo-4,5-dihydrothieno[3,2-b]pyridine-7-carboxylic acid]"
0.25 to 0.75 µM,,"COc1cc(-c2ccc(Cn3c(=O)c(O)c(C(=O)O)c4sccc43)cc2)ccn1 [Example 151, 6-hydroxy-4-(4-(2-methoxypyridin-4-yl)benzyl)-5-oxo-4,5-dihydrothieno[3,2-b]pyridine-7-carboxylic acid]"
< 0.2 µM,,"COCCOc1ccc(Cn2c(=O)c(O)c(C(=O)O)c3sccc32)cc1 [Example 152, 6-hydroxy-4-[4-(2-methoxyethoxy)benzyl]-5-oxo-4,5-dihydrothieno[3,2-b]pyridine-7-carboxylic acid]"
0.25 to 0.75 µM,,"CS(=O)(=O)COc1ccc(Cn2c(=O)c(O)c(C(=O)O)c3sccc32)cc1 [Example 153, 6-hydroxy-4-{4-[(methylsulfonyl)methoxy]benzyl}-5-oxo-4,5-dihydrothieno[3,2-b]pyridine-7-carboxylic acid]"
2.25 to 10 µM,,"COc1ccc(Cn2c(=O)c(O)c(C(=O)O)c3sc(CC(C)C)cc32)cc1 [Example 157, 6-hydroxy-2-isobutyl-4-(4-methoxybenzyl)-5-oxo-4,5-dihydrothieno[3,2-b]pyridine-7-carboxylic acid]"
2.25 to 10 µM,0.75 to 2.25 µM,"Cn1cc(Cn2c(=O)c(O)c(C(=O)O)c3sccc32)c(-c2ccccc2)n1 [Example 158, 6-hydroxy-4-[(1-methyl-3-phenyl-1H-pyrazol-4-yl)methyl]-5-oxo-4,5-dihydrothieno[3,2-b]pyridine-7-carboxylic acid]"
,2.25 to 10 µM,"Cc1c(Cn2c(=O)c(O)c(C(=O)O)c3sccc32)cnn1C [Example 159, 4-[(1,5-dimethyl-1H-pyrazol-4-yl)methyl]-6-hydroxy-5-oxo-4,5-dihydrothieno[3,2-b]pyridine-7-carboxylic acid]"
> 10 µM,> 10 µM,"Cn1ncc(Cn2c(=O)c(O)c(C(=O)O)c3sccc32)c1-c1ccccc1 [Example 160, 6-hydroxy-4-[(1-methyl-5-phenyl-1H-pyrazol-4-yl)methyl]-5-oxo-4,5-dihydrothieno[3,2-b]pyridine-7-carboxylic acid]"
